Experimental data published in publication PMC8455218, “A Cornflower Extract Containing N-Feruloylserotonin Reduces Inflammation in Human Skin by Neutralizing CCL17 and CCL22 and Inhibiting COX-2 and 5-LOX” (Mediators of Inflammation, 2021).

Molecular target: T1, Macrophage-Derived Chemokine (MDC/CCL22) (Homo sapiens, UniProt O00626)
T1 sequence (O00626 25-93): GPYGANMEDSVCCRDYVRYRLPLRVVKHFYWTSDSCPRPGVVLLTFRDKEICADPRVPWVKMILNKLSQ
Assay: TRIC-r calcium mobilization, Indo-1, EGFP-CCR4+Gqi5+ HEK cells
Assay type: cell-based

IC50: 15 µM
Compound: COc1cc(/C=C/C(=O)NCCc2c[nH]c3ccc(O)cc23)ccc1O [N-Feruloylserotonin]
